Source: US12319699B2, “L-proline sulfonamide derivatives comprising pyrazolo[4,3-e]tetrazolo[4,5-b][1,2,4]triazine system, method of manufacturing thereof, uses thereof and pharmaceutical composition comprising the same” (UNIWERSYTET MEDYCZNY W BIALYMSTOKU, priority 2018, dated 2025)

Key:
[1] = tested on: HT-29 colorectal cancer cells; experiment: Induction of apoptosis, Annexin V-FITC / propidium iodide flow cytometry; type: cell-based, human; conditions: 24 hours
Procedure: HT-29 human colorectal cancer cells (ATCC HTB-38, Manassas, VA, USA) were cultured in McCoy's 5A medium supplemented with 10% fetal bovine serum (FBS), 2 mM glutamine, 50 U/ml penicillin, 50 μg/ml of streptomycin at 37° C., in atmosphere containing 5% CO2. Subsequently, the cells were counted in a hemocytometer and were transferred in the amount of 1×10^6 cells per well in 1 ml of culture medium from Costar flasks (Sigma, USA) to Nunc 6-well plates (Wiesbaden, Germany). The cells were transferred using calcium-free phosphate buffer with the addition of 0.05% trypsin and 0.02% EDTA. […] Within the subsequent 24 hours the cells covered at least 80% of the surface of each plate well. The cells prepared in this manner were incubated with the examined compounds for 24 hours and then used for further experiments.
Induction of apoptosis was examined by a method using fluorescein isothiocyanate-labelled Annexin V (Annexin V-FITC) which forms complexes with phosphatidylserine in the presence of calcium ions. The complexes were determined using FITC Annexin V Apoptosis Detection Kit II (BD Biosciences, USA) and a flow cytometer BD FACSCanto H (BD Biosciences Systems, San Jose, CA, USA). The analysis of results was carried out by means of FACSDiva software (BD Biosciences Systems, San Jose, CA USA).
DLD-1 and HT-29 cells were incubated for 24 hours in an incubator at 37° C. in a 5% CO2 atmosphere with medium containing the examined compounds according to the invention at specific concentrations. Both examined compounds were used at a concentration of 1.5 μM and 3.0 μM. After the incubation period, the medium was removed, a binding buffer included in the kit was added and the cells were suspended in the buffer. In order to calibrate the apparatus two control samples, i.e. a positive one and a negative one, were prepared. The positive control constituted a reference of control cells in which apoptosis was induced by the addition of 3% formaldehyde. Three control samples were prepared. The first sample contained control cells and propidium iodide, the second sample contained control cells and Annexin V-FITC and the third sample contained control cells, propidium iodide and Annexin V-FITC. After adding 2 μl of 3% formaldehyde the cells were placed in a refrigerator for 10 minutes. Cells that were not treated with any agent constituted the negative control. The cells from the control samples and the cells treated by the examined compounds according to the invention (1×10^6 cells/ml) suspended in the buffer included in the kit were subjected to further examination. 200 μl suspension were taken from each examined sample and were transferred to test tubes. 3 μl Annexin V-FITC and 5 μl propidium iodide (PI) were added to each sample in room temperature and the samples were placed in a dark place for 15 minutes. Cell suspension prepared in this manner was analyzed within one hour in the flow cytometer BD FACSCanto II (BD Biosciences Systems, San Jose, CA, USA) by means of FACSDiva software. The results of the above experiment can be described as follows: live cells (double negative sample—lack of reaction with Annexin V and P), early apoptosis (Annexin V positive and PI negative sample), late apoptosis (Annexin V positive and PI positive sample) and necrosis (Annexin V negative and PI positive sample)

[2] = tested on: AGS human gastric cancer cells; experiment: Cytotoxicity, MTT assay (Carmichael's method), cell survival; type: cell-based; conditions: 24-hour incubation
Procedure: AGS human gastric cancer cells (ATCC CRL-1739, Manassas, VA, USA) were cultured in DMEM (Dulbecco's Modified Eagle's Medium) supplemented with 10% fetal bovine serum (FBS), 2 mM glutamine, 50 U/ml penicillin, 50 μg/ml streptomycin at 37° C., in atmosphere containing 5% CO2. Subsequently, the cells were counted in a hemocytometer and transferred in the amount of […] cells per well in 1 ml of culture medium from Costar flasks (Sigma, USA) to Nunc 6-well plates (Wiesbaden, Germany). The cells were transferred using calcium-free phosphate buffer with the addition of 0.05% trypsin and 0.02% EDTA. […] Within the subsequent 24 hours the cells covered at least 80% of the surface of each plate well. […]
Cytotoxicity of the examined compounds according to the invention was measured by Carmichael's method (Carmichael J et al, Cancer Res., 1987, 47:943-946) and cell viability was determined using the tetrazolium salt (MT) in MTT assay. […] In a cell lysate prepared in such manner absorbance at 630 nm was measured. The result of absorbance obtained in the control cell cultures was assumed to be 100%. The viability of cells incubated in the presence of the examined compounds was expressed as percentage of the control values. The significance level p was determined by the nonparametric Mann-Whitney U test by means of SigmaStat software. […]

[3] = HT-29, 1.5 μM, listed as compound of Formula 2

Row | SMILES | Early apoptosis ([1]; HT-29, 1.5 μM) | Late apoptosis ([1]; HT-29, 1.5 μM) | Live cells ([1]; HT-29, 1.5 μM) | Necrosis ([1]; HT-29, 1.5 μM) | early and late apoptotic cells (total) ([1]; HT-29, 1.5 μM) | Necrosis ([1]; HT-29, 1.5 μM, listed as compound of Formula 3) | Early apoptosis ([1]; HT-29, 3.0 μM) | Late apoptosis ([1]; HT-29, 3.0 μM) | Necrosis ([1]; HT-29, 3.0 μM) | IC50 [2] | Early apoptosis [1, 3] | Late apoptosis [1, 3] | Necrosis [1, 3] | Live cells ([1]; HT-29, 3.0 μM) | apoptotic cells (total) ([1]; HT-29, 3.0 μM) | Necrosis ([1]; HT-29, 3.0 μM, listed as compound of Formula 2)
1 | COC(=O)C1CC(O)CN1S(=O)(=O)c1ccc(-n2nc(C)c3nc4nnnn4nc32)cc1 (stereo not drawn) [Compound of Formula 3, Methyl 4-hydroxy-1-[4-(7-methyl-5H-pyrazolo[4,3-e]tetrazolo[4,5-b][1,2,4]triazyn-5-yl)phenylsulfonyl]pyrrolidine-2-carboxylate] | 14.5% | 16.0% | 65.0% | 4.5% | 30.5% | 4.5% | 25.2% | 13.7% | 2.6% | 800 ± 10 nM |  |  |  |  |  | 
2 | COC(=O)C1CCCN1S(=O)(=O)c1ccc(-n2nc(C)c3nc4nnnn4nc32)cc1 (stereo not drawn) [Compound of Formula 2, Methyl 1-[4-(7-methyl-5H-pyrazol[4,3-e]tetrazolo[4,5-b][1,2,4]triazyn-5-yl)phenylsulfonyl]pyrrolidine-2-carboxylate] | 9.0% | 4.7% | 85.3% | 1.0% |  |  | 9.6% | 9.4% | 2.7% | 920 ± 10 nM | 9.0% | 4.7% | 1.0% | 78.3% | 19.0% | 2.7%
